Consider 35 compounds from US20250222044A1, “LIMOSILACTOBACILLUS REUTERI GOLDGUT-LR99 AND APPLICATION THEREOF” (priority 2024, published 2025).

Where a SMILES comes first, the peptide text is derived from it.

The subject of one assay is Limosilactobacillus reuteri GOLDGUT-LR99. Description: Carbon source utilization and oxidation experiment (AN Biolog micro-pore plate). The class given is cell-based. Conditions: substrate utilization by the strain. On the procedure:
The AN Biolog micro-pore plate was used for measuring the utilization and oxidation conditions of different carbon sources of Limosilactobacillus reuteri GOLDGUT-LR99, the AN microplate used nutrients and biochemical reagents, and the method included the following steps: 1 mL of Limosilactobacillus reuteri GOLDGUT-LR99 bacterial liquid of the strain to be detected at the end of logarithmic growth was pipetted and centrifuged, then the supernatant was removed, the cells was washed three times with the seed liquid and suspended with 1 mL of the seed liquid, 50 μL of the suspension was taken and diluted in 10 mL of the seed liquid, the diluent was subpacked in a Biolog plate (100 μL/pore) after mixing uniformly, and the Biolog plate with the diluent was placed in 37° C. for anaerobic culture for 24 hours. After the culture was finished, OD590 and OD750 were detected by using microplate reader, the numerical values were recorded, and the utilization conditions of carbohydrate, organic acid and other substances of the Limosilactobacillus reuteri GOLDGUT-LR99 were calculated, wherein the calculation method was as follows: Y=OD590−OD750;
Consider `O=C(CO)[C@@H](O)[C@H](O)[C@H](O)CO` [D-Fructose], for which the “utilization effect (in words)” value is listed as “better utilization effect”.

The assay is the same for the next values; noted with them: substrate utilization by the strain, 37° C. anaerobic culture for 24 hours.
As for `C[C@H](N)C(N)=O` [L-Alanineamide], the “Utilization (Y=OD590−OD750)” value was “++ (when Y > 0.1, it is shown that the strain was able to effectively utilize this substance, marked as++)”.

`OC[C@H]1O[C@H](OC[C@H]2O[C@H](OC[C@H]3O[C@H](O[C@]4(CO)O[C@H](CO)[C@@H](O)[C@@H]4O)[C@H](O)[C@@H](O)[C@@H]3O)[C@H](O)[C@@H](O)[C@H]2O)[C@H](O)[C@@H](O)[C@H]1O` [Stachyose]: the “Utilization (Y=OD590−OD750)” value is reported as “+ (when 0.1 > Y > 0.05, it is shown that the strain was able to better utilize this substance, marked as +)”.

For the compound `O=C(CO)[C@@H](O)[C@H](O)[C@H](O)CO` [D-Fructose], the “Utilization (Y=OD590−OD750)” value is reported as “++ (when Y > 0.1, it is shown that the strain was able to effectively utilize this substance, marked as++)”.

Regarding `O=C[C@H](O)[C@@H](O)[C@@H](O)[C@H](O)C(=O)O` [D-Galacturonic acid], the “Utilization (Y=OD590−OD750)” value was “++ (when Y > 0.1, it is shown that the strain was able to effectively utilize this substance, marked as++)”.

Regarding `N#C[C@H](O[C@@H]1O[C@H](CO[C@@H]2O[C@H](CO)[C@@H](O)[C@H](O)[C@H]2O)[C@@H](O)[C@H](O)[C@H]1O)c1ccccc1` [Amygdalin], the “Utilization (Y=OD590−OD750)” value was “− (when Y < 0.05, it is shown that the strain was not able to utilize this substance, marked as −)”.

Turning to `C[C@H](N)C(=O)O` [L-Alanine], the “Utilization (Y=OD590−OD750)” value is recorded as “− (when Y < 0.05, it is shown that the strain was not able to utilize this substance, marked as −)”.

As to `Nc1ncnc2c1ncn2[C@H]1C[C@H](O)[C@@H](CO)O1` [2′-Deoxyadenosine], the “Utilization (Y=OD590−OD750)” value is listed as “− (when Y < 0.05, it is shown that the strain was not able to utilize this substance, marked as −)”.

Consider `O=P(O)(O)O[C@H]1O[C@H](CO)[C@@H](O)[C@H](O)[C@H]1O` [Glucose-1-phosphate], for which the “Utilization (Y=OD590−OD750)” value is “+ (when 0.1 > Y > 0.05, it is shown that the strain was able to better utilize this substance, marked as +)”.

Consider `OC[C@H]1O[C@@H](Oc2ccc(O)cc2)[C@H](O)[C@@H](O)[C@@H]1O` [Arbutin], for which the “Utilization (Y=OD590−OD750)” value was “− (when Y < 0.05, it is shown that the strain was not able to utilize this substance, marked as −)”.

With `C[C@H](N)C(=O)N[C@@H](Cc1c[nH]cn1)C(=O)O` [L-Alanyl-histidine] (H-Ala-His-OH), the “Utilization (Y=OD590−OD750)” value is “− (when Y < 0.05, it is shown that the strain was not able to utilize this substance, marked as −)”.

As to L-Uracilic acid, the “Utilization (Y=OD590−OD750)” value is reported as “− (when Y < 0.05, it is shown that the strain was not able to utilize this substance, marked as −)”.

Take `CC(=O)O` [Ethanoic acid]: the “Utilization (Y=OD590−OD750)” value is reported as “− (when Y < 0.05, it is shown that the strain was not able to utilize this substance, marked as −)”.

With `OC[C@H]1O[C@@](CO)(O[C@H]2O[C@H](CO)[C@@H](O)[C@H](O)[C@H]2O)[C@@H](O[C@H]2O[C@H](CO)[C@@H](O)[C@H](O)[C@H]2O)[C@@H]1O` [D-Melezitose], the “Utilization (Y=OD590−OD750)” value is reported as “− (when Y < 0.05, it is shown that the strain was not able to utilize this substance, marked as −)”.

On to `COC(=O)C(C)O` (stereo not shown) [Methyl lactate], for which the “Utilization (Y=OD590−OD750)” value is “+ (when 0.1 > Y > 0.05, it is shown that the strain was able to better utilize this substance, marked as +)”.

In the case of `C=C(CC(=O)O)C(=O)O` [Itaconic acid], the “Utilization (Y=OD590−OD750)” value was “− (when Y < 0.05, it is shown that the strain was not able to utilize this substance, marked as −)”.

For another assay the test system is unchanged. Briefly: Antibiotic sensitivity, K-B method (Kirby-Bauer method). The class given is cell-based. On the set-up: key to Antibiotic susceptibility test result: R represents resistance; S represents sensitivity. Conditions: susceptibility of the strain to the antibiotic. How it is done:
Antibiotic sensitivity of Limosilactobacillus reuteri GOLDGUT-LR99 was determined using the K-B method (Kirby-Bauer method).
As for `CN(C)c1ccc(O)c2c1C[C@H]1C[C@H]3[C@H](N(C)C)C(O)=C(C(N)=O)C(=O)[C@@]3(O)C(O)=C1C2=O` [Minocycline], the “Antibiotic susceptibility test result” value is reported as “S”.

Regarding `Cc1nnc(SCC2=C(C(=O)O)N3C(=O)[C@@H](NC(=O)Cn4cnnn4)[C@H]3SC2)s1` [Cefazolin], the “Antibiotic susceptibility test result” value is given as “S”.

As for `CC1(C)S[C@@H]2[C@H](NC(=O)[C@H](N)c3ccccc3)C(=O)N2[C@H]1C(=O)O` [Ampicillin], the “Antibiotic susceptibility test result” value was “S” and the “antibiotic sensitivity (in words)” value is reported as “sensitive”.

Take Neomycin: the “Antibiotic susceptibility test result” value was “S”.

Turning to `CC1=C(C(=O)O)N2C(=O)[C@@H](NC(=O)[C@H](N)C3=CCC=CC3)[C@H]2SC1` [Cefradine], the “Antibiotic susceptibility test result” value is reported as “S”.

Turning to `CCC(=O)O[C@@H]1CC(=O)O[C@H](C)C/C=C/C=C/[C@H](O)[C@H](C)C[C@H](CC=O)[C@H](O[C@@H]2O[C@H](C)[C@@H](O[C@H]3C[C@@](C)(O)[C@@H](OC(=O)CC)[C@H](C)O3)[C@H](N(C)C)[C@H]2O)[C@H]1OC` [Midecamycin], the “Antibiotic susceptibility test result” value is on record as “R”.

As to `CO/N=C(\C(=O)N[C@@H]1C(=O)N2C(C(=O)O)=C(CSc3nc(=O)c(=O)[nH]n3C)CS[C@H]12)c1csc(N)n1` [Ceftriaxone], the “Antibiotic susceptibility test result” value is “S”.

`Cc1cc(NS(=O)(=O)c2ccc(N)cc2)no1` [Sulfamethoxazole, Compound Sulfamethoxazole]: the “Antibiotic susceptibility test result” value is reported as “R”.

On to `CN[C@H](CC(C)C)C(=O)N[C@H]1C(=O)N[C@@H](CC(N)=O)C(=O)N[C@H]2C(=O)N[C@H]3C(=O)N[C@H](C(=O)N[C@H](C(=O)O)c4cc(O)cc(O)c4-c4cc3ccc4O)[C@H](O)c3ccc(c(Cl)c3)Oc3cc2cc(c3O[C@@H]2O[C@H](CO)[C@@H](O)[C@H](O)[C@H]2O[C@H]2C[C@](C)(N)[C@H](O)[C@H](C)O2)Oc2ccc(cc2Cl)[C@H]1O` [Vancomycin], for which the “Antibiotic susceptibility test result” value is listed as “R”.

Take Polymyxin: the “Antibiotic susceptibility test result” value is “R”.

Take `O=C(O)c1cn(C2CC2)c2cc(N3CCNCC3)c(F)cc2c1=O` [Ciprofloxacin]: the “Antibiotic susceptibility test result” value is on record as “R”.

As to `CCN1CCN(C(=O)N[C@@H](C(=O)N[C@@H]2C(=O)N3C(C(=O)O)=C(CSc4nnnn4C)CS[C@H]23)c2ccc(O)cc2)C(=O)C1=O` [Cefperazone], the “Antibiotic susceptibility test result” value is given as “S”.

Take `CC(C)(O/N=C(\C(=O)N[C@@H]1C(=O)N2C(C(=O)[O-])=C(C[n+]3ccccc3)CS[C@H]12)c1csc(N)n1)C(=O)O` [Ceftazidime]: the “Antibiotic susceptibility test result” value is “S”.

With `C[C@H]1c2cccc(O)c2C(=O)C2=C(O)[C@]3(O)C(=O)C(C(N)=O)=C(O)[C@@H](N(C)C)[C@@H]3[C@@H](O)[C@@H]21` [Doxycycline], the “Antibiotic susceptibility test result” value is “S”.

Consider `CN(C)[C@@H]1C(O)=C(C(N)=O)C(=O)[C@@]2(O)C(O)=C3C(=O)c4c(O)cccc4[C@@](C)(O)[C@H]3C[C@@H]12` [Tetracycline], for which the “Antibiotic susceptibility test result” value is listed as “S”.

As to `CC1(C)S[C@@H]2[C@H](NC(=O)Cc3ccccc3)C(=O)N2[C@H]1C(=O)O` [Benzylpenicillin], the “Antibiotic susceptibility test result” value is “S”.

Consider `O=C(N[C@H](CO)[C@H](O)c1ccc([N+](=O)[O-])cc1)C(Cl)Cl` [Chloramphenicol], for which the “Antibiotic susceptibility test result” value was “S”.

For `CC1=C(C(=O)O)N2C(=O)[C@@H](NC(=O)[C@H](N)c3ccccc3)[C@H]2SC1` [Cephalexin], the “Antibiotic susceptibility test result” value is “S”.

In the case of `CO/N=C(\C(=O)N[C@@H]1C(=O)N2C(C(=O)O)=C(COC(N)=O)CS[C@H]12)c1ccco1` [Cefuroxime], the “Antibiotic susceptibility test result” value is recorded as “S”.

Regarding `NC[C@H]1O[C@H](O[C@H]2[C@H](O)[C@@H](O[C@H]3O[C@H](CO)[C@@H](O)[C@H](N)[C@H]3O)[C@H](N)C[C@@H]2N)[C@H](O)[C@@H](O)[C@@H]1O` [Kanamycin], the “Antibiotic susceptibility test result” value is “S”.
